Values joined by “and” are separate entries in the source; they are usually repeats but may differ in a detail not shown here. Equal entries are not always repeated. “Also recorded” adds a separate entry of the source. Where two headings read alike, the source gives them in different places.
Columns and labels:
[1] = molecular target: T1, P450 4A11 (Homo sapiens, UniProt Q02928); assay: Alexa-FABP1 and P450 4A11 association kinetics (stopped-flow fluorescence); assay type: binding
T1 construct: made in house; host or cells: E. coli
T1 sequence (Q02928 5-519): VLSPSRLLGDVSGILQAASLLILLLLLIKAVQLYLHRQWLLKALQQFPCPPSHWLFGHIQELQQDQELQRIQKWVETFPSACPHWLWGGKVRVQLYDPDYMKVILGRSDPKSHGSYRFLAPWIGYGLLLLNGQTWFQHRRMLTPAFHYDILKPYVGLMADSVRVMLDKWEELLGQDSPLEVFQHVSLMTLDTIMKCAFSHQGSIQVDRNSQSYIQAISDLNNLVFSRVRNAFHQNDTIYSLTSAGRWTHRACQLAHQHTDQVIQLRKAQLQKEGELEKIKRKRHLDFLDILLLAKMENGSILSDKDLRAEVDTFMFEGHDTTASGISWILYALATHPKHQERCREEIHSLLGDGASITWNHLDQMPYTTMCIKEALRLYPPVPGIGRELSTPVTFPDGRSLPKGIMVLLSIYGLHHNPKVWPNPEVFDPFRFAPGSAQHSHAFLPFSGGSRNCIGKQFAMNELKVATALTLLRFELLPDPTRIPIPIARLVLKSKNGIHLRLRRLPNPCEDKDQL
T1 sequence (P07148 with tags, fused parts or gaps partner): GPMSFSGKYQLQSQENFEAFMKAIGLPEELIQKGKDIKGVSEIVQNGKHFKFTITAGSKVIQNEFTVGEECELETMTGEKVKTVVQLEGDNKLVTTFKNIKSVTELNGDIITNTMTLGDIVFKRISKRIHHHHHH
Method: We then investigated whether the rate of protein–protein association could be estimated using our fluorescent construct. A solution of Alexa-FABP1 (125 nM final concentration) was rapidly mixed with P450 4A11 (125 Nm final concentration), and Alexa-488 fluorescence was monitored over time. The data were fit to a single exponential equation and yielded an association rate of 2.0 ± 0.2 s^−1 (Fig. 10B).
To estimate a rate of interaction for FABP1 and P450, we loaded the protein–protein binding data (Fig. 10B) and fit the data to a simple model, E+F↔EF , as described in the Experimental procedures section. The software fit a kon rate of 2.0 × 10^7 M^−1 s^−1, close to that estimated by using the extracted binding rate ∼2 s^−1 at the concentration (0.125 μM) of either reaction component (i.e., 2 s^−1/0.125 μM = 16 μM^−1 s^−1 = 1.6 × 10^7 M^−1 s^−1).
Mixing solutions (2 ml) of (A) Alexa-FABP1 (0.25 μM [estimated by A280 prior to conjugation reaction, accounting for dilution, and assuming no protein loss during the reaction as described earlier]) and (B) P450 4A11 (0.25 μM) were prepared in potassium phosphate buffer (100 mM, pH 7.4) and loaded into the stopped-flow spectrofluorometer described earlier. The instrument (1.24 mm slit width) was set with an excitation wavelength of 470 nm and Oriel end-on filter for emission >495 nm. The fluorescence maximum of Alexa-FABP1 is 510 nm as described earlier, and stimulation is observed upon protein–protein binding (see “Titrations of Alexa-FABP1 with P450 4A11”). At least six replicate measurements were recorded, the spectra were processed such that the fluorescence gain (from DAUDA binding) began at an (x, y) intercept of (0, 0), and the spectra were averaged. A smoothing factor of 0.4 was applied to the data (in Microsoft Excel), and the resulting curve was fit to a single exponential plot in GraphPad Prism, and the rate of association was extracted. The data were loaded into KinTek Explorer and fit to a minimal kinetic model of protein–protein association (i.e., E+F↔EF ), and a second-order rate constant for the association was extracted.

[2] = molecular target: T2, P450 101A1 (P450cam) (Pseudomonas putida, UniProt P00183); assay: Control fluorescence titration of Alexa-FABP1 with P450 101A1 (P450cam); assay type: binding, bacterial; conditions: 100 mM KPhos
T2 construct: made in house
T2 sequence (P00183 whole entry, looked up): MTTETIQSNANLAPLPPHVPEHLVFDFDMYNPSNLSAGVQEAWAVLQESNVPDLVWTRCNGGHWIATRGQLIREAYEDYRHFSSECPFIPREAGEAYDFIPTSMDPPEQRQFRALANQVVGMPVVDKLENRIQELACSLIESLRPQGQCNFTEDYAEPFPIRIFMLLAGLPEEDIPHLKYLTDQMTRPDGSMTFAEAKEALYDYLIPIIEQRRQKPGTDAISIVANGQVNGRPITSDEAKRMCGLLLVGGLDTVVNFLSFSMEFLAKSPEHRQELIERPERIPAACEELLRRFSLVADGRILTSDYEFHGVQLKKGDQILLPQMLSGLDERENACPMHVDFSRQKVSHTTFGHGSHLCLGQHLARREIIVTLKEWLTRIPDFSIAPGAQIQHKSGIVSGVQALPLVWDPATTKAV
Method: (§1) The Alexa-FABP1 construct was tested for P450 binding in a fluorescence titration with P450 4A11.
(§2) Figure 10 Binding of Alexa-FABP1 to P450 4A11.A, equilibrium binding titration of Alexa-FABP1 (25 nM) with P450 4A11 as the titrant (0–50 nM). Titrations were performed in 10 mM (closed circles) or 100 mM (open circles) potassium phosphate buffer (pH 7.4). A control reaction was performed with P450 101A1 (P450cam) in 100 mM KPhos (open squares). The change in fluorescence upon protein–protein binding was normalized to the corresponding change in a buffer control. […] Each data point corresponds to one independent replicate, ≥3 biological replicates were collected to confirm the effect. B, kinetics of binding of Alexa-FABP1 (0.125 μM) and P450 4A11 (0.125 μM). Six traces were averaged, and the data were fit to a single exponential curve (in red). The extracted binding rate was 2.0 ± 0.2 s^−1. FABP1, fatty acid binding protein.

[3] = molecular target: T1, P450 4A11; assay: Fluorescence titration of Alexa-FABP1 with P450 4A11; assay type: binding
Method: as §1, §2
Alexa-FABP1 (25 nM [estimated by an asborbance at 280 nm prior to conjugation reaction, accounting for dilution, and assuming no protein loss during the reaction]) was prepared in potassium phosphate buffer (10 mM or 100 mM, pH 7.4) in a 1 ml glass cuvette. A buffer baseline was recorded using an OLIS DM-45 spectrofluorometer (1.24 mm slit width) with excitation wavelength of 470 nm and scanning emission spectra from 500 to 600 nm. P450 4A11 (stored in 100 mM potassium phosphate buffer [pH 7.4] containing 20% glycerol) was titrated (0–50 nM) into the Alexa-FABP1 solution. The same experiment was repeated but with the P450 4A11 buffer used as the titrant to normalize the data for any solvent effect. […] As stimulation was observed by the P450 interaction, the value of one was subtracted from the normalized fluorescence values so that the curve would have an (x, y) intercept of (0, 0). Kd values were calculated fitting plots of the normalized fluorescence at emission maximum versus concentration of P450 4A11 using a quadratic equation in GraphPad Prism software.

[4] = molecular target: T3, P450 4A11 (Homo sapiens, UniProt Q02928); set-up: made in house; host or cells: E. coli; method as in PMID 25203493; conditions: cited from earlier work
T3 sequence (Q02928 5-519): T1 sequence (Q02928 5-519)

[5] = molecular target: T4, FABP1 (Homo sapiens, UniProt P07148); conditions: cited from earlier work
T4 construct: GST (N, cleaved yes); made in house; host or cells: Escherichia coli DH5α
T4 sequence (P07148 with tags, fused parts or gaps): T1 sequence (P07148 with tags, fused parts or gaps partner)

[6] = Stability of DAUDA stock solutions; assay type: physicochemical
Method: DAUDA stock solutions (10 mM, prepared in C2H5OH) could be stored at −20 °C for up to 1 week with no significant decay of the UV spectrum and no formation of degradation peaks in the LC–MS chromatogram. Storage under these conditions for more than 1 week did compromise sample integrity (and the samples were discarded). We later observed that DAUDA stock solutions (10 mM) prepared in 50 mM K2CO3 and frozen at −80 °C could undergo several freeze–thaw cycles over the course of 2 months with no significant decay of the UV spectrum and no formation of degradation peaks in the LC–MS chromatogram.

[7] = molecular target: T4, FABP1; assay: Fluorescence titration of DAUDA with FABP1 (reverse titration); assay type: binding; conditions: DAUDA 50 nM, FABP1 titrated, quadratic fit
Method: Binding of DAUDA to FABP1 was assessed in a “reverse titration” where FABP1 was titrated into a fixed concentration of DAUDA (50 nM), yielding a characteristic gain of fluorescence (Fig. 4A) at 482 nm. FABP1 was titrated into a solution of DAUDA (“reverse titration”) and not vice versa because of the intrinsic fluorescence of DAUDA (Fig. S11E), which overlaps with the spectrum of DAUDA–FABP1 (Fig. 4A). The intrinsic fluorescence of DAUDA was generally only problematic at concentrations much higher (>500 nM) than used in the assays (50 nM), though we sought to eliminate this additional variable by performing the reverse titration to estimate the Kd.
Figure 4 Fluorescence titration of DAUDA with FABP1 (“reverse” titration).A, fluorescence spectra (λex = 335 nm) of DAUDA (0.05 μM) collected with increasing concentrations of FABP1 (0–1.25 μM). The binding of DAUDA to FABP1 is accompanied by a gain of fluorescence, indicated with an arrow. B, titration curve calculated with data points (n = 1) at the observed fluorescence maximum (482 nm) and plotted versus concentration of FABP1. Data were fit to a quadratic equation. DAUDA, 11-dansylaminoundecanoic acid; FABP1, fatty acid binding protein. […]

[8] = molecular target: T3, P450 4A11; assay: Equilibrium binding titrations of P450 4A11 with lipids (heme Soret spectral shift); conditions: P450 1 µM, DAUDA 1 nM to 10 µM
Method: Affinity of palmitate and 16-OH palmitate for P450 4A11 (1 μM) was assessed by monitoring the blue shift (from ∼420 nm to ∼390 nm) of the P450 heme Soret band as a substrate binds and displaces the sixth axial heme ligand (H2O) to yield pentacoordinated heme (“type I” shift) ([26]).
P450 4A11 (1 μM) was titrated with (A) palmitate and (B) 16-OH palmitate in a 1.0 cm pathlength cell. Difference plots were calculated from absorbance maxima (∼390 nm) and minima (∼420 nm), and the data were fit to a hyperbolic equation. The insets in each panel are the difference spectra between a cuvette that received the lipid substrate and a cuvette that received solvent alone. Each data point corresponds to one independent replicate.
Equilibrium binding titrations with P450 4A11 (1 μM) were performed in buffer (100 mM potassium phosphate [pH 7.4]) as described previously ([44], [56]). Briefly, a baseline was first acquired on an OLIS-Cary 14 spectrophotometer set to scan from 350 to 500 nm in 1 cm glass cuvettes. […] The cuvettes were mixed with a plumper after additions, and spectra were recorded. The spectra were exported into Microsoft Excel software, and the absorbance values at 418 nm were subtracted from those at 390 nm and the values were plotted as a function of lipid concentration.
Titration of P450 4A11 with DAUDA. The P450 concentration was 1 µM and the DAUDA concentration was varied using a geometric series from 1 nM to 10 µM. […] The increase in absorbance in the UV region is due to the strong chromophore in the DAUDA dansyl moiety (Fig. S8).

[9] = molecular target: T4, FABP1; assay: Stopped-flow kinetics of DAUDA binding to FABP1
Method: In order to measure the rate of binding of DAUDA to FABP1, four concentrations (0.5–12.5 μM) of DAUDA were rapidly mixed with FABP1 (0.5 μM), and the gain of fluorescence (at 482 nm, Fig. 4A) was monitored over time (Fig. 6, A–D). […] A kon value (k4) of 9.0 ± 0.2 × 10^7 M^−1 s^−1 was calculated from the data (see the Experimental procedures section) (Fig. 6F).
Figure 6 Kinetics of binding of DAUDA to FABP1. FABP1 (0.5 μM) was mixed with (A) 0.5 μM, (B) 2.5 μM, (C) 5 μM, and (D) 12.5 μM DAUDA to yield the binding traces shown. DAUDA–FABP1 was excited (λex = 335 nm) as in Fig. 4 and total fluorescence signal >420 nm was collected. Data were fit to double exponential curves, and (E) the rate of the fast phase was extracted and plotted against DAUDA concentration. The data curve was fit to a Michaelis–Menten-type hyperbola. Each trace corresponds to ≥6 averaged replicate traces. In part A, the binding of DAUDA (0.5 μM) was proportional to the disappearance of protein (0.5 μM). The reciprocal concentration of FABP1 was plotted against time in part F, and the slope of the linear portion (linear regression in red) of that curve ([77]) gave an on-rate (kon) of 9.0 × 10^7 M^−1 s^−1. DAUDA, 11-dansylaminoundecanoic acid; FABP1, fatty acid binding protein.
Determination of the DAUDA on-rate (kon) to FABP1 was performed by mixing FABP1 (1 μM) and DAUDA ([…], see “Preparation of DAUDA stock solutions”) solutions (both in 100 mM potassium phosphate buffer, pH 7.4) in equal proportion (yielding a twofold dilution of all reaction components) using an OLIS stopped-flow spectrofluorometer with the parameters set as described earlier (see “P450 4A11 kon determinations”). […] At least six replicate measurements were recorded, the spectra were processed such that the fluorescence gain (from DAUDA binding) began at an (x, y) intercept of (0, 0), and the spectra were averaged and fit to double exponential plots in GraphPad Prism, and the rates for the fast (kon) and slow phases of binding were extracted. Then, as the first experiment was recorded by mixing equimolar (1 μM) concentrations of FABP1 and DAUDA and the binding was rapid, we approximated the binding as 2A → C (i.e., mathematically equivalent to A + B → C when the depletion of B is equal to the depletion of A ([77])). We plotted [FABP]^−1 as a function of time and fit the data to a linear equation (the slope of which is kon).

## Alexa-FABP1: FABP1 labeled at Cys-71 with Alexa-488 C5 maleimide
[1]; Alexa-FABP1 0.125 μM, P450 4A11 0.125 μM, single exponential
  rate of protein–protein association: ~2 s⁻¹ and 2.0 ± 0.2 s⁻¹
[1]; KinTek fit to E+F↔EF
  kon of FABP1–P450 4A11 association (k6): ~2e+07 M⁻¹ s⁻¹
[2]
  change of Alexa-FABP1 fluorescence: mild attenuation of fluorescence
[3]; 100 mM to 10 mM potassium phosphate
  decrease of Kd on reducing ionic strength: ~38 fold
[3]; dependent on ionic strength
  Kd: 3 to 124 nM

## O=C(O)CCCCCCCCCCCO [12-OH laurate]
[4]
  P450 heme Soret spectral shift induced: typical type I spectral shift

## CN(C)c1cccc2c(S(=O)(=O)NCCCCCCCCCCC(=O)O)cccc12 [DAUDA, 11-dansylaminoundecanoic acid]
[5]; human ortholog, high-affinity site, read-out: Kd,1
  Kd: 200 nM
[5]; human ortholog, low-affinity site, read-out: Kd,2
  Kd: > 3300 nM
[5]; literature estimate, high-affinity site, read-out: Kd
  Kd: > 460 nM
[6]; 10 mM in 50 mM K2CO3, −80 °C, several freeze–thaw cycles
  storage time with no significant decay of UV spectrum and no degradation peaks: 2 months
[6]; 10 mM in C2H5OH, −20 °C
  storage time with no significant decay of UV spectrum and no degradation peaks: up to 1 week
[7]
  Kd: 56 nM
[8]
  binding to P450 4A11 (type I spectral shift): not detected; also recorded: did not bind
[9]; FABP1 0.5 μM, DAUDA 0.5 μM, read-out: kon of DAUDA to FABP1 (k4)
  kon: 9e+07 M⁻¹ s⁻¹
[9]; calculated from kon and Kd
  koff: 5 s⁻¹
[9]; faster
  koff from FABP1 relative to koff from P450 4A11: 25 fold
  kon of DAUDA to FABP1 relative to palmitate binding to P450 4A11: > 2000 fold

From article PMC11847541, “Liver fatty acid binding protein FABP1 transfers substrates to cytochrome P450 4A11 for catalysis” (The Journal of Biological Chemistry, 2025)
